In experiment [1] the target is T1, Sentrin-specific protease 6 (Homo sapiens, UniProt Q9GZR1).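 Also: Luminescence-based dose-response confirmatory assay of SENP6 inhibition, following up an ultra-high-throughput screen.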
T1 sequence (Q9GZR1 whole entry): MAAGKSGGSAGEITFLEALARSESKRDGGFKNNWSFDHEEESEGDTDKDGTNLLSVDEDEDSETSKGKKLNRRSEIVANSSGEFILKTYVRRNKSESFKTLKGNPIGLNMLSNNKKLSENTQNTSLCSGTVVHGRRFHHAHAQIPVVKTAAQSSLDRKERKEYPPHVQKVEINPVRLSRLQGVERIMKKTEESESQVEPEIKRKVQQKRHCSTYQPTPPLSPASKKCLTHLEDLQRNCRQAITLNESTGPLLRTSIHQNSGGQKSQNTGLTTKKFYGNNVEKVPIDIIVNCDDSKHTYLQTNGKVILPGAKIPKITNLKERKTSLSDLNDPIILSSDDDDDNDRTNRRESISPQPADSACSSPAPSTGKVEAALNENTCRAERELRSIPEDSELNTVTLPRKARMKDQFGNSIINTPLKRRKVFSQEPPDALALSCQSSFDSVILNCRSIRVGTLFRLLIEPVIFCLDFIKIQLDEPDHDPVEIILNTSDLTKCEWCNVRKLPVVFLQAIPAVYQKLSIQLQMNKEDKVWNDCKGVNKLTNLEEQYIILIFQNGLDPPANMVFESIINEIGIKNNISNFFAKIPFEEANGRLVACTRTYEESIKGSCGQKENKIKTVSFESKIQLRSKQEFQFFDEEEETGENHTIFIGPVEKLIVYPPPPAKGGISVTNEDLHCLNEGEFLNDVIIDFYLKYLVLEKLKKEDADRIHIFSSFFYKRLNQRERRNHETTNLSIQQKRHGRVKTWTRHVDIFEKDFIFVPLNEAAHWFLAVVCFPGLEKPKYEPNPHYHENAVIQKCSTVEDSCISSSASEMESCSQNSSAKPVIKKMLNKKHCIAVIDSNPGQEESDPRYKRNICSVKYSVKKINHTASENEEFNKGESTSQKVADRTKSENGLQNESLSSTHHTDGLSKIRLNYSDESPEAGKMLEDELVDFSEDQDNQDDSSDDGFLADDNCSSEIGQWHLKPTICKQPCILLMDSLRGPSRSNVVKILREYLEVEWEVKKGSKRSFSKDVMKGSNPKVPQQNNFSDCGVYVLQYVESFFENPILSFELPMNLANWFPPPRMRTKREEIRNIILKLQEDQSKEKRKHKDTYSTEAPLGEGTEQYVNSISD
In kind it is functional.

The nature of experiment [2]: Luminescence Cell-Based Dose Response HTS to Identify Activators of 5'UTR Stem-Loop Driven Prion Protein mRNA Translation in H4-C Neuroglioblastoma Cells. [Related pubchem assays: 1829 (Project Summary), 1814 (Primary HTS)]. In kind it is functional.
In experiment [3] the target is T2, Replicative DNA helicase DnaB (Mycobacterium tuberculosis, UniProt P9WMR3).
T2 sequence (P9WMR3 whole entry): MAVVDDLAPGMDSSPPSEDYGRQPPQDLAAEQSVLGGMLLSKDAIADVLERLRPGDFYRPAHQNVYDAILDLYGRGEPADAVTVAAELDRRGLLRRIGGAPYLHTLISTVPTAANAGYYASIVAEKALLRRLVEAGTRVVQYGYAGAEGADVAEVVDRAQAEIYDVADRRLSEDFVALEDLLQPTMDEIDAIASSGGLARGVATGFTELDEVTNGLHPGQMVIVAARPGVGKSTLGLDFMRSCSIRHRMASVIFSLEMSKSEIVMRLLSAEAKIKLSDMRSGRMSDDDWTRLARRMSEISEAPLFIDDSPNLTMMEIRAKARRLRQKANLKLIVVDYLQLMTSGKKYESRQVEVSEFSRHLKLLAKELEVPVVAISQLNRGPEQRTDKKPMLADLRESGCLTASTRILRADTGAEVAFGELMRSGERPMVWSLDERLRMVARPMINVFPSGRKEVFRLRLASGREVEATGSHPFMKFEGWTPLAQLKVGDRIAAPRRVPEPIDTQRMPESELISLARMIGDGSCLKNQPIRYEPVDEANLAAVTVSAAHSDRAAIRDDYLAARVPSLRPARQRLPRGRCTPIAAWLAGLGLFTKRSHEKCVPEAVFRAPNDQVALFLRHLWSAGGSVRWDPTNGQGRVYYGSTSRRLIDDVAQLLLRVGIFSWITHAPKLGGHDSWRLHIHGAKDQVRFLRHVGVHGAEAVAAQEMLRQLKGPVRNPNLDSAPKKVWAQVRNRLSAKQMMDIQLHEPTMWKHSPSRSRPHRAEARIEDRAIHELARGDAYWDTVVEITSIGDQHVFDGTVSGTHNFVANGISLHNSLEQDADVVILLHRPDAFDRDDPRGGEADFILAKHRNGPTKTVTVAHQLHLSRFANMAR
The experiment is described as follows: DnaB intein splicing inhibitors, dose response, biochemical, cell-free fluorescence (AID 449749). It is filed as functional.

The next experiment concerns the target T3, Leucine aminopeptidase (Plasmodium falciparum 3D7, UniProt Q8IL11).
T3 sequence (Q8IL11 whole entry): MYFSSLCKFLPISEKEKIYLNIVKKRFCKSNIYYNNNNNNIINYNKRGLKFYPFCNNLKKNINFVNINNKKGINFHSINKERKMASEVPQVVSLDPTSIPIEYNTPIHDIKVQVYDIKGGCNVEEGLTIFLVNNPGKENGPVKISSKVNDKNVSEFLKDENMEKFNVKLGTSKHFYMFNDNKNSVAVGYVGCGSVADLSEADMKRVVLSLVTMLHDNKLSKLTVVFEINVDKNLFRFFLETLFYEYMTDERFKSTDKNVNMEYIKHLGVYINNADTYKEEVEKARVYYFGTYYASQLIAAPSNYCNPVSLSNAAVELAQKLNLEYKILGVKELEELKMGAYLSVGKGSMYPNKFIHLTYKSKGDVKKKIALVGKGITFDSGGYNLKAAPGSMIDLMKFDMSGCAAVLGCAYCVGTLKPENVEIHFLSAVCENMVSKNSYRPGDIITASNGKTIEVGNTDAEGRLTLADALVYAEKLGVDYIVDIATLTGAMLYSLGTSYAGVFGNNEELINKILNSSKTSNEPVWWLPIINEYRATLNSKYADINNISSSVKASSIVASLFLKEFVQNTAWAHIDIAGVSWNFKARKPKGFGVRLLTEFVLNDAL
The experiment is described as follows: P. falciparum M17LAP inhibitors, primary screen, biochemical, fluorogenic H-Leu-NHMec substrate, 1536-well (AID 1619). It is filed as functional.

The test system of experiment [4] is Streptococcus sp. 'group A'. The experiment is described as follows: Streptococcus pyogenes SK(-)GAS viability under kanamycin – luminescence, BacTiterGlo, confirmation, counter-screen for streptokinase expression inhibitor project, dose response (AID 1900). It is filed as functional, organism-based. The settings on record: Streptococcus sp. 'group A'.
A further experiment addresses SUMO-activating enzyme (Homo sapiens, UniProt Q9UBT2). Kind of experiment: blockers of UBC9-mediated SUMO conjugation – biochemical, AlphaScreen, SUMOylation inhibitor project, confirmation (AID 2018). In kind it is functional. (Bead proximity is the source of the signal in Alpha formats.)
The subject of another experiment is Streptococcus. Kind of experiment: GAS UMAA2166 growth inhibition – luminescence, BacTiterGlo, counter-screen for streptokinase expression inhibitor project, dose response (AID 1915).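 Also: potency for reduction of bacterial viability or growth.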 In kind it is functional, organism-based. The settings on record: Streptococcus. In general terms: Counterscreens check selectivity or assay interference.

Experimental findings from ChEMBL document CHEMBL1201862, “PubChem BioAssay data set” (2004) are described below.

In general, IC50 refers to the concentration needed to halve the response being measured. For orientation: EC50 means the concentration at which the effect is half-maximal. In general, AC50 refers to the midpoint of the concentration-response curve, whichever way the signal moves.

Active and inactive are the calls of the source.

SUMO-activating enzyme, sequence (Q9UBE0 whole entry): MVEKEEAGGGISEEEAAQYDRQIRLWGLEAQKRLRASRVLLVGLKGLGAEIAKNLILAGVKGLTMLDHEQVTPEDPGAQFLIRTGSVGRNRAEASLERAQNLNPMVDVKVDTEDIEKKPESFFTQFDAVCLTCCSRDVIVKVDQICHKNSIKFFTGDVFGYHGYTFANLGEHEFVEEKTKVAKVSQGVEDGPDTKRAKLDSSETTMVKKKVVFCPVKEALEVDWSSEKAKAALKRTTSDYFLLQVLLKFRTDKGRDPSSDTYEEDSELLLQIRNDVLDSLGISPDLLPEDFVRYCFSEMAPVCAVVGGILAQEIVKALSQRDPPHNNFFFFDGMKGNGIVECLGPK
SUMO-activating enzyme, sequence (Q9UBT2 whole entry): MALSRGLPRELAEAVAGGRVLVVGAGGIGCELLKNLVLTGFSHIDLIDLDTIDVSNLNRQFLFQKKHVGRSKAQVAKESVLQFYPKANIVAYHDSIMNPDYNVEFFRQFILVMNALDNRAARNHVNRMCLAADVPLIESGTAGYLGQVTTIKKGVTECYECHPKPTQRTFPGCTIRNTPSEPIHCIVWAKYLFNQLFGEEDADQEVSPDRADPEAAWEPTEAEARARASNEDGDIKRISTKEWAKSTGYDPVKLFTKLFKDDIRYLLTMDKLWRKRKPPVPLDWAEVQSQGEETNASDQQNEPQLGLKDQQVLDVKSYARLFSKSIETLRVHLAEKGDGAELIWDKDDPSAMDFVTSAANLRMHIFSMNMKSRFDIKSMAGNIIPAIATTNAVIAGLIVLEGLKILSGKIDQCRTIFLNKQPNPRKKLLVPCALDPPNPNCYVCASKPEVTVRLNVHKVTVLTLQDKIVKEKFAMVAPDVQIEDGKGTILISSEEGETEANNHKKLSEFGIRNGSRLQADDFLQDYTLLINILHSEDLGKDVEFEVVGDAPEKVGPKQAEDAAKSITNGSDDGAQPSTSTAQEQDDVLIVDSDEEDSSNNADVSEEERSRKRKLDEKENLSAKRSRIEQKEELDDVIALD

On to `c1ccc2c(Nc3nnc(-c4ccncc4)s3)cccc2c1`, for which the IC50 in experiment [1] was 10.1 µM (active). The EC50 in experiment [2] is 40 µM (active).
In the case of `N#Cc1c(O)nc(SCC(=O)N2c3ccccc3Sc3ccccc32)nc1-c1ccccc1`, the AC50 in experiment [3] was 2.41 µM (active). Besides, the IC50 at Leucine aminopeptidase is 10.2 µM (active); on SUMO-activating enzyme, 5.15 µM (active). Moreover, the values for the EC50 (in experiment [4]; in the experiment on Streptococcus) were 5.6 µM (active) and 13.9 µM (active), respectively.
For `COc1cc(C(=O)c2nccc3cc(OC)c(OC)cc23)c([N+](=O)[O-])cc1OC`, in experiment [3], the AC50 is 0.273 µM (active). The IC50 in experiment [1] is 0.936 µM (active).
For the compound `N=C1S/C(=C\c2ccc(-c3ccccc3C(=O)O)o2)C(=O)N1c1ccc2c(c1)OCO2`, the IC50 on Leucine aminopeptidase is 29 µM (active).
